Measurements taken from US11884671B2, “Purinone compounds and their use in treating cancer” (ASTRAZENECA AB, priority 2018, dated 2024).

How the values were obtained:
TTK = TTK (Homo sapiens (Human), UniProt P33981); assay: TTK enzyme assay (LanthaScreen Eu Kinase Binding); conditions: arithmetic mean of two or more experiments; for IC50: read-out: TTK enz pIC50 (converted)
Protocol: The inhibitory activity of compounds against TTK was determined in a LanthaScreen® Eu Kinase Binding assay run by ThermoFisher Scientific as part of their SelectScreen® Biochemical Kinase Profiling Service. The LanthaScreen® Eu Kinase Binding assay format uses binding of an Alexa Fluor® conjugate or “tracer” to a kinase, which is detected by addition of a Eu-labeled anti-tag antibody. […] The degree of FRET measured in the assay is used to determine the binding of a compound.
(§1) 10 point three-fold dilution compound concentration-response curves, with a top concentration of 10 μM were generated from 10 mM stocks of compound solubilised in DMSO. All assays were performed in white, low volume Greiner 384-well plates (cat. #784207, Greiner), in a total reaction volume of 16 μL and 1% (v/v) final DMSO concentration. […] Plates were then read using a fluorescence plate reader. IC50 values were calculated using XLfit software (IDBS Ltd, Surrey, UK), with the curve fit to model number 205 (sigmoidal dose-response model).

[1] = biological target: Full length human DNAPK protein (Homo sapiens (Human), UniProt P78527); assay: DNAPK enzyme potency assay (DNA-PK enz), TR-FRET; type: biochemical; conditions: arithmetic mean of two or more experiments, 18 μM ATP; for IC50: read-out: DNA-PK enz pIC50 (converted)
Description: The following assays were used to measure the effects of the compounds described herein: a) DNAPK enzyme potency assay; b) DNAPK cellular potency assay. During the description of the assays, generally: • i. The following abbreviations have been used; DMSO=Dimethyl Sulphoxide; DTT=Dithiothreitol; EDTA=Ethylenediaminetetraacetic Acid, TR-FRET=Time Resolved Fluorescence Resonance Energy Transfer, ATP=Adenosine triphosphate, DTT=Dithiothreitol, DNA=Deoxyribonucleic acid, HEPES=(2-hydroxyethyl)-1-piperazineethanesulfonic acid • ii. […] Assay a): DNAPK Enzyme Potency Assay (DNA-PK Enz)
The inhibitory activity of compounds against DNAPK was determined by TR-FRET measuring a fluorescent labelled peptide substrate converting to a phosphorylated product. Fluorescently tagged peptide substrate were purchased from Thermo Fisher Scientific. 12 point half-log compound concentration-response curves, with a top concentration of 100 μM were generated from 10 mM stocks of compound solubilised in DMSO using an Echo 555 (Labcyte Inc., Sunnyvale, CA). All assays were preformed in white Greiner 1536 well low volume plates (Greiner Bio-One, UK), in a total reaction volume of 3 μL and 1% (v/v) final DMSO concentration. Enzymes and substrates were added separately to the compound plates and incubated at room temperature. The kinase reaction was then quenched by the addition of 3 μL of stop buffer. Stopped assay plates were read using a BMG Pherastar. IC50 values were calculated using a Genedata Screener® software (Genedata, Inc., Basel, Switzerland).
Full length human DNAPK protein was purified from HeLa cell extract by ion exchange. Initially DNAPK protein was incubated with compound for 30 minutes at room temperature in reaction buffer (50 mM Hepes pH 7.5, 0.01% Brij-35, 10 mM MgCl2, 1 mM EGTA, 1 mM DTT, […] Calf Thymus DNA). The reaction was then initiated by the addition of ATP and fluorescently tagged peptide substrate (Fluorescein-[…], Thermo Fisher Scientific). […] The reaction was incubated for a further hour and the plates were read on a BMG Pherastar.
Data was analysed and IC50 values were calculated using Genedata Screener® software (Genedata, Inc., Basel, Switzerland).

JAK1 = JAK1 (Homo sapiens (Human), UniProt P23458); assay: JAK1 enzyme assay (Z'-LYTE); type: biochemical; conditions: 75 μM ATP, arithmetic mean of two or more experiments; for IC50: read-out: JAK1 enz pIC50 (converted)
Sequence of JAK1 (P23458 whole entry): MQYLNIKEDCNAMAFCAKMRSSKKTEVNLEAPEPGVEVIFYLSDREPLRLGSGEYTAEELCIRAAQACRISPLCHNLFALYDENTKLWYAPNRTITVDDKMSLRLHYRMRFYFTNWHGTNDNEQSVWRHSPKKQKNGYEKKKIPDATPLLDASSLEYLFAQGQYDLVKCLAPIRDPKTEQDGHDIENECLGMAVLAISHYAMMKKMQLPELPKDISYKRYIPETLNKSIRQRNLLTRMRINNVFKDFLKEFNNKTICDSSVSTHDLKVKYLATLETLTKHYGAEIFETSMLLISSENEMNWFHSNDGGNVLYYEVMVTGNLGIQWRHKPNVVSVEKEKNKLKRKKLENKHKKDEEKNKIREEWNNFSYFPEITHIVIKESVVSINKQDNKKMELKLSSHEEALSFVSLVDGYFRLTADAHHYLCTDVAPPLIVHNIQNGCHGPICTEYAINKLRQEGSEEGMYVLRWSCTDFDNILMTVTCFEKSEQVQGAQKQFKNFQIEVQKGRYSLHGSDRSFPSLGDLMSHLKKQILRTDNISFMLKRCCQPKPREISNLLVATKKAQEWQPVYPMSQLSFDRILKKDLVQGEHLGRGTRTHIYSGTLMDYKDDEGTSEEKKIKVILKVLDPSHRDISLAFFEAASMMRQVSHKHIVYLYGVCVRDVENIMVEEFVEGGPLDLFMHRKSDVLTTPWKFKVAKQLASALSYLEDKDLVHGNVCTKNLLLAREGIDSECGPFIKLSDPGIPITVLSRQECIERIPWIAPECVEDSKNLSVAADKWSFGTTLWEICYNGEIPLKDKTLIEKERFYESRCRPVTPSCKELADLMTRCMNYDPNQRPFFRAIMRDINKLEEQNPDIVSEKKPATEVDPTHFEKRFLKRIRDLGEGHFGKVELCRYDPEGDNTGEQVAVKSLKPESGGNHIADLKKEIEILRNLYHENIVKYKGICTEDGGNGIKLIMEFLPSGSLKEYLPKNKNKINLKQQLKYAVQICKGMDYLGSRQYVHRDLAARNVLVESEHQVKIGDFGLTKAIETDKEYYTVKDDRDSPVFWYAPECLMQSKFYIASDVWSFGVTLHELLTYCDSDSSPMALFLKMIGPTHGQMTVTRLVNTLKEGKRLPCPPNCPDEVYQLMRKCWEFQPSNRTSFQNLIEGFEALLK
Protocol: The inhibitory activity of compounds against AURKA, AURKB, JAK1, JAK2 and JAK3 was determined in Z′-LYTE® assays run by ThermoFisher Scientific as part of their SelectScreen® Biochemical Kinase Profiling Service. The Z′-LYTE® biochemical assay format employs a fluorescence-based, coupled-enzyme format and is based on the differential sensitivity of phosphorylated and non-phosphorylated peptides to proteolytic cleavage. The peptide substrate is labeled with two fluorophores—one at each end—that make up a FRET pair. In the primary reaction, the kinase transfers the gamma-phosphate of ATP to a single tyrosine, serine or threonine residue in a synthetic FRET-peptide. In the secondary reaction, a site-specific protease recognises and cleaves non-phosphorylated FRET-peptides. Phosphorylation of FRET-peptides suppresses cleavage by the Development Reagent. Cleavage disrupts FRET between the donor (i.e., coumarin) and acceptor (i.e., fluorescein) fluorophores on the FRET-peptide, whereas uncleaved, phosphorylated FRET-peptides maintain FRET. A ratiometric method, which calculates the ratio (the Emission Ratio) of donor emission to acceptor emission after excitation of the donor fluorophore at 400 nm, is used to quantitate reaction progress. Both cleaved and uncleaved FRET-peptides contribute to the fluorescence signals and therefore to the Emission Ratio. The extent of phosphorylation of the FRET-peptide can be calculated from the Emission Ratio.
as §1, with “black, non-binding,” for “white,”, “Corning” for “Greiner”, “#4514, Corning),” for “#784207, Greiner),”, “10” for “16”, “The kinase reaction was” for “Plates were”, “quenched by the addition of 5 μL of Development Reagent (ThermoFisher Scientific proprietary). […]” for “read using a fluorescence plate reader.”
JAK1: The 2×JAK/Tyr 06 (ThermoFisher Scientific proprietary) mixture was prepared in 50 mM HEPES pH 6.5, 0.01% BRIJ-35, 10 mM MgCl2, 1 mM EGTA, 0.02% NaN3. […] After the 1 hour Kinase Reaction incubation, 5 μL of a 1:128 dilution of Development Reagent was added.

Sequence of TTK (P33981 whole entry): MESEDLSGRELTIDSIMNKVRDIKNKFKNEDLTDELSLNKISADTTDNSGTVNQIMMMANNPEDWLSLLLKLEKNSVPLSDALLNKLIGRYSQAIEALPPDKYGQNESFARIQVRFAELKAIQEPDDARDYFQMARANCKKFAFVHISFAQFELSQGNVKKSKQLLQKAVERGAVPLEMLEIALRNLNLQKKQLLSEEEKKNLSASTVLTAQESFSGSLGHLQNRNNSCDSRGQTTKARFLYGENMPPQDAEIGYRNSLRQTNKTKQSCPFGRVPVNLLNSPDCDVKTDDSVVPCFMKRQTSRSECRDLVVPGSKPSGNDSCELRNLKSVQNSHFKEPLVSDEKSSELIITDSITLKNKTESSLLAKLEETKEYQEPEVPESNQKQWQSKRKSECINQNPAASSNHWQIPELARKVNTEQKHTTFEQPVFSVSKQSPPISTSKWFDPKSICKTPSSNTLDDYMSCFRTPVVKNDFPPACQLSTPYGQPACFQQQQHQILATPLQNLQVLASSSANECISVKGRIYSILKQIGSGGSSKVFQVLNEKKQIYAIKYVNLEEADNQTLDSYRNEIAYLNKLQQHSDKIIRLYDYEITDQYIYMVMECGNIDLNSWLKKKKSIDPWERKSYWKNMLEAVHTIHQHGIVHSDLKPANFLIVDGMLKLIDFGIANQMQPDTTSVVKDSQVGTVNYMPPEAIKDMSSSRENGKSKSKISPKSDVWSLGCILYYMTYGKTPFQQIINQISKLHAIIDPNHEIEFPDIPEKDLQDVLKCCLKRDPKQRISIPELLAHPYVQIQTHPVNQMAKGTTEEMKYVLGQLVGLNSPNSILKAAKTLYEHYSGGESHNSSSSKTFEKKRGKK

Row | Structure (SMILES) | IC50 (TTK) | IC50 [1] | IC50 (JAK1) | TTK enz pIC50 (TTK) | DNA-PK enz pIC50 [1] | JAK1 enz pIC50 (JAK1)
1 | Cc1cc2ncccc2cc1Nc1ncc2c(n1)n([C@H]1CC[C@](C)(N)CC1)c(=O)n2C [Example 40, 9-((1r,4r)-4-amino-4-methylcyclohexyl)-7-methyl-2-((7-methylquinolin-6-yl)amino)-7,9-dihydro-8H-purin-8-one] | 1580 nM | 0.316 nM | > 10000 nM | – | – | –
2 | Cc1cc2nccnc2cc1Nc1ncc2c(n1)n([C@H]1CC[C@](C)(O)CC1)c(=O)n2C [Example 18, 9-((1r,4r)-4-hydroxy-4-methylcyclohexyl)-7-methyl-2-((7-methylquinoxalin-6-yl)amino)-7,9-dihydro-8H-purin-8-one] | 1580 nM | 0.251 nM | > 10000 nM | – | – | –
3 | Cc1cc2ncccc2cc1Nc1ncc2c(n1)n(C1CCN(CCO)CC1)c(=O)n2C [Example 48, 9-(1-(2-hydroxyethyl)piperidin-4-yl)-7-methyl-2-((7-methylquinolin-6-yl)amino)-7,9-dihydro-8H-purin-8-one] | – | – | – | 5.9 | 9.0 | <5
4 | Cc1cc2nccnc2cc1Nc1ncc2c(n1)n([C@H]1CC[C@@H](O)CC1)c(=O)n2C [Example 13, 9-((1s,4s)-4-hydroxycyclohexyl)-7-methyl-2-((7-methylquinoxalin-6-yl)amino)-7,9-dihydro-8H-purin-8-one] | 316 nM | 0.2 nM | > 10000 nM | – | – | –
5 | Cc1cc2ncccc2cc1Nc1ncc2c(n1)n([C@H]1CC[C@@H](O)CC1)c(=O)n2C [Example 11, 9-((1s,4s)-4-hydroxycyclohexyl)-7-methyl-2-((7-methylquinolin-6-yl)amino)-7,9-dihydro-8H-purin-8-one] | 398 nM | 0.158 nM | > 10000 nM | – | – | –
6 | Cc1cc2nnccc2cc1Nc1ncc2c(n1)n([C@@H]1CCCOC1)c(=O)n2C [Example 25, (R)-7-methyl-2-((7-methylcinnolin-6-yl)amino)-9-(tetrahydro-2H-pyran-3-yl)-7,9-dihydro-8H-purin-8-one] | – | – | – | 6.2 | 9.7 | <5
7 | Cc1cc2nnccc2cc1Nc1ncc2c(n1)n([C@@H]1CCOC1)c(=O)n2C [Example 23, (R)-7-methyl-2-((7-methylcinnolin-6-yl)amino)-9-(tetrahydrofuran-3-yl)-7,9-dihydro-8H-purin-8-one] | – | – | – | 5.9 | 9.4 | <5
8 | Cc1cc2nnccc2cc1Nc1ncc2c(n1)n([C@H]1CC[C@@H](O)CC1)c(=O)n2C [Example 12, 9-((1s,4s)-4-hydroxycyclohexyl)-7-methyl-2-((7-methylcinnolin-6-yl)amino)-7,9-dihydro-8H-purin-8-one] | – | – | – | 6.3 | >10 | <5
9 | Cc1cc2nccnc2cc1Nc1ncc2c(n1)n([C@H]1CC[C@H](O)CC1)c(=O)n2C [Example 10, 9-((1r,4r)-4-hydroxycyclohexyl)-7-methyl-2-((7-methylquinoxalin-6-yl)amino)-7,9-dihydro-8H-purin-8-one] | 398 nM | < 0.1 nM | > 10000 nM | – | – | –
10 | Cc1cc2nnccc2cc1Nc1ncc2c(n1)n([C@H]1CC[C@H](O)CC1)c(=O)n2C [Example 7, 9-((1r,4r)-4-hydroxycyclohexyl)-7-methyl-2-((7-methylcinnolin-6-yl)amino)-7,9-dihydro-8H-purin-8-one] | – | – | – | 6.9 | >10 | <5
11 | Cc1cc2nccnc2cc1Nc1ncc2c(n1)n([C@H]1CCOC1)c(=O)n2C [Example 22, (S)-7-methyl-2-((7-methylquinoxalin-6-yl)amino)-9-(tetrahydrofuran-3-yl)-7,9-dihydro-8H-purin-8-one] | – | – | – | 5.5 | 9.8 | <5
12 | Cc1cc2ncccc2cc1Nc1ncc2c(n1)n([C@H]1CC[C@@](C)(N)CC1)c(=O)n2C [Example 39, 9-((1s,4s)-4-amino-4-methylcyclohexyl)-7-methyl-2-((7-methylquinolin-6-yl)amino)-7,9-dihydro-8H-purin-8-one] | 3980 nM | 1 nM | > 10000 nM | – | – | –
13 | Cc1cc2nccnc2cc1Nc1ncc2c(n1)n([C@H]1CCCOC1)c(=O)n2C [Example 28, (S)-7-methyl-2-((7-methylquinoxalin-6-yl)amino)-9-(tetrahydro-2H-pyran-3-yl)-7,9-dihydro-8H-purin-8-one] | – | – | – | 6.1 | >10 | <5
14 | CC(=O)N1CCC(n2c(=O)n(C)c3cnc(Nc4cc5nccnc5cc4C)nc32)CC1 [Example 2, 9-(1-acetylpiperidin-4-yl)-7-methyl-2-((7-methylquinoxalin-6-yl)amino)-7,9-dihydro-8H-purin-8-one] | – | – | – | 5.8 | 9.8 | <5
15 | Cc1cnc2cc(Nc3ncc4c(n3)n(C3CCOCC3)c(=O)n4C)c(C)cc2n1 [Example 33, 2-((2,7-dimethylquinoxalin-6-yl)amino)-7-methyl-9-(tetrahydro-2H-pyran-4-yl)-7,9-dihydro-8H-purin-8-one] | 1260 nM | 0.501 nM | > 10000 nM | – | – | –
16 | Cc1cc2nccnc2cc1Nc1ncc2c(n1)n([C@H]1CC[C@@](C)(O)CC1)c(=O)n2C [Example 19, 9-((1s,4s)-4-hydroxy-4-methylcyclohexyl)-7-methyl-2-((7-methylquinoxalin-6-yl)amino)-7,9-dihydro-8H-purin-8-one] | 200 nM | 0.158 nM | > 10000 nM | – | – | –
17 | Cc1cc2nccc(C)c2cc1Nc1ncc2c(n1)n([C@H]1CC[C@H](O)CC1)c(=O)n2C [Example 8, 2-((4,7-dimethylquinolin-6-yl)amino)-9-((1r,4r)-4-hydroxycyclohexyl)-7-methyl-7,9-dihydro-8H-purin-8-one] | 631 nM | < 0.1 nM | > 10000 nM | – | – | –
